Measurements published in patent EP0252380B1, “Antibiotic LL-E19020 alpha and beta” (AMERICAN CYANAMID COMPANY, priority 1986, dated 1988).
In brackets after ≈: the same amount, converted by molar mass. Marks after values point to notes of the source that are not given here.

Key:
Pasteurella haemolytica = assay: Minimum inhibitory concentration by agar dilution (Table VI); type: cell-based; settings: 3 strains tested
Bacteroides fragilis = assay: In vitro antibacterial activity, standard agar dilution method (Table II); type: cell-based; settings: strain NYC 77-1
Pseudomonas aeruginosa = assay: as above; type: cell-based; settings: strain 12-4-4
Escherichia coli [1] = assay: as above; type: cell-based; settings: strain 311
[2] = system: Trichostrongylus colubriformis; assay: Trichostrongylus colubriformis/gerbil anthelmintic evaluation; type: in vivo, Gerbils
Experimental: Gerbils are infected with 400 infective larvae of the sheep parasite, T. colubriformis on a day 0. On day 7 gerbils are divided into test and untreated control groups of 2-3 animals. Drug is administered in the feed and are fed from day 7-11. Drugs may also be given by gavage (single oral dose) or injected subcutaneously. Single doses are usually administered on day 7. Gerbils are killed on day 11 and small intestines removed. The number of T. colubriformis remaining in the intestines of treated animals are counted and compared to the number remaining in the untreated controls.

Enterococcus = assay: In vitro antibacterial activity, standard agar dilution method (Table II); type: cell-based
[3] = system: Staphylococcus epidermidis; assay: as above; type: cell-based; settings: strain IO-83-58
[4] = system: Mycoplasma gallisepticum "R"; assay: Minimum inhibitory concentration assay for Mycoplasma gallisepticum (microdilution, Table VII); settings: microdilution; "R" strain
[5] = Growth of chickens and efficiency of feed utilization (Example 5, Table VIII); type: in vivo, Peterson X Arbor Acres chicks; settings: for Feed/Gain 0-1 Wk: control 1.21; for Feed/Gain 0-2 Wk: control 1.33; for Feed/Gain 0-3 Wk: control 1.43
Experimental: In this test one day old Peterson X Arbor Acres chicks are sorted into equal weight groups of 5 males and 5 females per cage. Cages are randomized to treatment groups with six replicates per treatment. Each compound is tested at 50 and 100 ppm in the diet and evaluated against chicks receiving a non-medicated diet.
The chicks are weighed at the start of the test and at 1 week intervals thereafter to the conclusion of said test. The chicks are given free access to feed and water during the entire test period. The feed is weighed when provided to the chicks and excess feed collected and weighed when the cages are cleaned.
The poultry diet employed in the test is as follows: Vitamin-amino acid premix 0.5% Trace minerals 0.1% Sodium chloride 0.3% Dicalcium phosphate 1.2% Ground limestone 0.5% Stabilized fat 4.0% Dehydrated alfalfa, 17% protein 2.0% Corn gluten meal, 41% protein 5.0% Menhaden fish meal, 60% protein 5.0% Soybean oil meal, 44% protein 30.0% Ground yellow corn, fine to 100.0%
The vitamin-amino acid premix in the above feed composition is prepared from the following formulation. The expressions of quantity relate to units per kilogram of the finished feed compositions. Butylated hydroxy toluene 125.0 mg d1-Methionine 500.0 mg Vitamin A 3300.0 I.U. Vitamin D₃ 1100.0 I.C.U. Riboflavin 4.4 mg Vitamin E 2.2 I.U. Niacin 27.5 mg Panthothenic acid 8.8 mg Choline chloride 500.0 mg Folic acid 1.43 mg Menadione sodium bisulfate 1.1 mg Vitamin B₁₂ 11.0 mcg Ground yellow corn, fine to […]

Peptococcus magnus = assay: In vitro antibacterial activity, standard agar dilution method (Table II); type: cell-based
Treponema hyodysenteriae = assay: Minimum inhibitory concentration by microdilution (Table VII); type: cell-based
Serratia marcescens = assay: In vitro antibacterial activity, standard agar dilution method (Table II); type: cell-based; settings: strain K-84-18
Enterobacter cloacae = assay: as above; type: cell-based; settings: strain VGH-84-37
Pasteurella multocida = assay: Minimum inhibitory concentration by agar dilution (Table VI); type: cell-based; settings: 6 strains tested
Morganella morganii = assay: In vitro antibacterial activity, standard agar dilution method (Table II); type: cell-based; settings: strain VGH-84-71
[6] = system: Bordetella bronchiseptica; assay: Minimum inhibitory concentration by agar dilution (Table VI); type: cell-based; settings: 4 strains tested
[7] = system: Streptococcus pyogenes C203; assay: In vivo antibacterial activity in infected mice (Table III); settings: S. pyogenes C203, 30 minutes before infection
Clostridium perfringens = type: cell-based; settings: strain ATCC 13124
Streptococcus pneumoniae = assay: In vitro antibacterial activity, standard agar dilution method (Table II); type: cell-based
Clostridium difficile = assay: as above; type: cell-based; settings: strain ATCC 17858
Escherichia coli [8] = assay: Minimum inhibitory concentration by agar dilution (Table VI); type: cell-based; settings: 2 strains tested
Salmonella choleraesuis = assay: as above; type: cell-based; settings: 2 strains tested
[9] = Weight gain and feed efficiency of broiler chicks (Example 6, Table IX); type: in vivo, Peterson X Arbor Acres chicks; settings: for Wg Gains And Feed Efficiency % Improvement Over Controls FEED/GAIN: control 1.41

C/C=C/C=C/[C@@H]1O[C@](O)([C@H](CO[C@H]2C[C@H](OC)[C@H](O[C@@H]3C[C@H](OC)[C@@H](O[C@H]4C[C@H](OC)[C@H](O)[C@H](C)O4)[C@H](C)O3)[C@H](C)O2)C(=O)NC/C=C/C=C(\C)[C@H](OC)[C@@H](C)[C@@H]2C[C@H](O)[C@@H](/C=C/C=C/C=C\C(=O)O)O2)[C@@H](O)[C@H](OC(=O)Cc2ccccc2)C1(C)C [LL-E19020 beta]
MIC (Pasteurella haemolytica): 16 µg/mL (≈ 13 µM) | Minimal Inhibitory Concentration (Bacteroides fragilis): >128 µg/mL | Minimal Inhibitory Concentration (Pseudomonas aeruginosa): >128 µg/mL | Minimal Inhibitory Concentration (Escherichia coli [1]): >128 µg/mL | % Worms Removed ([2]; 5 m/kg single oral dose): 19% | % Worms Removed ([2]; 62.5 ppm diet, fed day 7-11): 32% | % Worms Removed ([2]; 150 ppm diet, fed day 7-11): 86% | % Worms Removed ([2]; 250 ppm diet, fed day 7-11): 100% | Minimal Inhibitory Concentration (Enterococcus; strain CMC-83-72): >128 µg/mL | Minimal Inhibitory Concentration (Enterococcus; strain IO-83-28): >128 µg/mL | Minimal Inhibitory Concentration (Enterococcus; strain IO-83-40): >128 µg/mL | Minimal Inhibitory Concentration (Enterococcus; strain VGH-84-65): >128 µg/mL | Minimal Inhibitory Concentration (Enterococcus; strain VGH-84-68): >128 µg/mL | Minimal Inhibitory Concentration [3]: > 128 µg/mL | MIC [4]: 0.125 µg/mL (≈ 0.102 µM) | Weight Gains % Improvement over Controls 0-1 Wk ([5]; 50 ppm in the diet): 12.7** % | Weight Gains % Improvement over Controls 0-2 Wk ([5]; 50 ppm in the diet): 4.5* % | Weight Gains % Improvement over Controls 0-3 Wk ([5]; 50 ppm in the diet): 5.3* % | Feed/Gain 0-1 Wk ([5]; 50 ppm in the diet): 1.11* | Feed/Gain 0-2 Wk ([5]; 50 ppm in the diet): 1.31 | Feed/Gain 0-3 Wk ([5]; 50 ppm in the diet): 1.40 | Weight Gains % Improvement over Controls 0-1 Wk ([5]; 100 ppm in the diet): 10.7* % | Weight Gains % Improvement over Controls 0-2 Wk ([5]; 100 ppm in the diet): 5.1* % | Weight Gains % Improvement over Controls 0-3 Wk ([5]; 100 ppm in the diet): 5.9** % | Feed/Gain 0-1 Wk ([5]; 100 ppm in the diet): 1.13* | Feed/Gain 0-2 Wk ([5]; 100 ppm in the diet): 1.29 | Feed/Gain 0-3 Wk ([5]; 100 ppm in the diet): 1.38 | efficiency of feed utilization (statement in words) ([5]; over unmedicated controls): increased the efficiency of feed utilization | weight gains of chicks (statement in words) ([5]; over unmedicated controls): improved the weight gains of chicks | Minimal Inhibitory Concentration (Peptococcus magnus; strain ATCC 14956): 0.5 µg/mL | Minimal Inhibitory Concentration (Peptococcus magnus; strain ATCC 29328): 0.5 µg/mL | MIC (Treponema hyodysenteriae; strain B78 (ATCC 27164)): 1 µg/mL (≈ 0.815 µM) | MIC (Treponema hyodysenteriae; strain B204 (ATCC 31212)): 0.5 µg/mL (≈ 0.408 µM) | Minimal Inhibitory Concentration (Serratia marcescens): >128 µg/mL | Minimal Inhibitory Concentration (Enterobacter cloacae): >128 µg/mL | MIC (Pasteurella multocida): 8 to 16 µg/mL | Minimal Inhibitory Concentration (Morganella morganii): >128 µg/mL | MIC [6]: > 256 µg/mL | Survival Ratios 7 Days After Infection ([7]; single subcutaneous dose 4 mg/kg): 2/5 | Survival Ratios 7 Days After Infection ([7]; single subcutaneous dose 8 mg/kg): 3/5 | Survival Ratios 7 Days After Infection ([7]; single subcutaneous dose 16 mg/kg): 5/5 | Survival Ratios 7 Days After Infection ([7]; single subcutaneous dose 32 mg/kg): 5/5 | Survival Ratios 7 Days After Infection ([7]; single subcutaneous dose 64 mg/kg): 5/5 | Minimal Inhibitory Concentration (Clostridium perfringens): 4 µg/mL | Minimal Inhibitory Concentration (Streptococcus pneumoniae; strain K-84-21): 0.5 µg/mL | Minimal Inhibitory Concentration (Streptococcus pneumoniae; strain SVI): 1 µg/mL | Minimal Inhibitory Concentration (Streptococcus pneumoniae; strain VGH-84-56): 0.5 µg/mL | Minimal Inhibitory Concentration (Streptococcus pneumoniae; strain VGH-84-57): 1 µg/mL | Minimal Inhibitory Concentration (Streptococcus pneumoniae; strain VGH-84-58): 0.25 µg/mL | Minimal Inhibitory Concentration (Streptococcus pneumoniae; strain VGH-84-59): 0.25 µg/mL | Minimal Inhibitory Concentration (Clostridium difficile): 1 µg/mL | MIC (Escherichia coli [8]): ≧ 256 µg/ml | MIC (Salmonella choleraesuis): > 256 µg/mL | Wg Gains And Feed Efficiency % Improvement Over Controls COMBINED ([9]; 12.5 PPM in diet): 2.6% | Wg Gains And Feed Efficiency % Improvement Over Controls FEMALES ([9]; 12.5 PPM in diet): 6.0% | Wg Gains And Feed Efficiency % Improvement Over Controls MALES ([9]; 12.5 PPM in diet): 0% | Wg Gains And Feed Efficiency % Improvement Over Controls FEED/GAIN ([9]; 12.5 PPM in diet): 1.33** | Wg Gains And Feed Efficiency % Improvement Over Controls COMBINED ([9]; 25 PPM in diet): 3.4% | Wg Gains And Feed Efficiency % Improvement Over Controls FEMALES ([9]; 25 PPM in diet): 5.1% | Wg Gains And Feed Efficiency % Improvement Over Controls MALES ([9]; 25 PPM in diet): 2.4% | Wg Gains And Feed Efficiency % Improvement Over Controls FEED/GAIN ([9]; 25 PPM in diet): 1.38* | Wg Gains And Feed Efficiency % Improvement Over Controls COMBINED ([9]; 50 PPM in diet): 2.2% | Wg Gains And Feed Efficiency % Improvement Over Controls FEMALES ([9]; 50 PPM in diet): 4.6% | Wg Gains And Feed Efficiency % Improvement Over Controls MALES ([9]; 50 PPM in diet): 0% | Wg Gains And Feed Efficiency % Improvement Over Controls FEED/GAIN ([9]; 50 PPM in diet): 1.38* | Wg Gains And Feed Efficiency % Improvement Over Controls COMBINED ([9]; 100 PPM in diet): 4.5% | Wg Gains And Feed Efficiency % Improvement Over Controls FEMALES ([9]; 100 PPM in diet): 7.2% | Wg Gains And Feed Efficiency % Improvement Over Controls MALES ([9]; 100 PPM in diet): 1.7% | Wg Gains And Feed Efficiency % Improvement Over Controls FEED/GAIN ([9]; 100 PPM in diet): 1.34** | Wg Gains And Feed Efficiency % Improvement Over Controls COMBINED ([9]; 200 PPM in diet): 2.7% | Wg Gains And Feed Efficiency % Improvement Over Controls FEMALES ([9]; 200 PPM in diet): 1.4% | Wg Gains And Feed Efficiency % Improvement Over Controls MALES ([9]; 200 PPM in diet): 4.2% | Wg Gains And Feed Efficiency % Improvement Over Controls FEED/GAIN ([9]; 200 PPM in diet): 1.35**
